The target of this assay is T1, human cloned 5-HT6 receptors (Homo sapiens, UniProt P50406).
T1 construct: expressed in transfected cells
Kind of assay: 5-HT6 receptor affinity (procedures outlined in WO 98/27081). The format is binding.

[1] abbreviates: human cloned 5-HT6 receptors, procedures of WO 98/27081, read-out: pKi at human cloned 5-HT6 receptors (converted).

Molecules are shown by their SMILES. Structures can show the parent of a compound that is named as a salt. Where two headings read alike, the source gives them in different places.

T1 sequence (P50406 whole entry): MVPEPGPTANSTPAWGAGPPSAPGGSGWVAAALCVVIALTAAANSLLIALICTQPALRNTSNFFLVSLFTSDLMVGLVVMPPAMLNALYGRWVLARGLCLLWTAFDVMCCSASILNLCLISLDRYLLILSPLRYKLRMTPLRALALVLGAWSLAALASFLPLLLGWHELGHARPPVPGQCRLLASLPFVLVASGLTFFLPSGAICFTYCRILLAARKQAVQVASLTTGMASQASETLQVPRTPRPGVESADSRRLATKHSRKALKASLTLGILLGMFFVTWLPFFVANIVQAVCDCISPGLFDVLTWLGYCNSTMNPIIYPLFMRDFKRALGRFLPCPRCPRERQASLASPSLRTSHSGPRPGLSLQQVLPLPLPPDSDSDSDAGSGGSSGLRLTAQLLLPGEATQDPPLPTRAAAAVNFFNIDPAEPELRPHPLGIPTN

Consider `O=S(=O)(c1cccc(Cl)c1)n1cc(Cl)c2c(N3CCNCC3)cccc21` [Example E151, 3-Chloro-1-(3-chlorobenzenesulfonyl)4-piperazin-1-yl-1H-indole hydrochloride], for which the Ki lay in the range of 0.2 to 1.58 nM.
Same read-out and setting: next, `O=S(=O)(c1cccc(Cl)c1)n1ccc2c(N3CCNCC3)cc(Cl)cc21` [Example E166, 6-Chloro-1-(3-chlorobenzenesulfonyl)-4-piperazin-1-yl-1H-indole hydrochloride]: 0.2 to 1.58 nM; `COc1ccc2c(ccn2S(=O)(=O)c2ccc(C)cc2)c1N1CCNCC1` [Example E80, 5-Methoxy-4-(piperazin-1-yl)-1-(toluene-4-sulfonyl)-1H-indole]: 0.2 to 1.58 nM.
On the same count and under the same terms, next, `COc1ccc2c(ccn2S(=O)(=O)c2cccc(Cl)c2)c1N1CCNCC1` [Example E172, 1-(3-Chlorobenzenesulfonyl)-5-methoxy-4-piperazin-1-yl-1H-indole hydrochloride]: 0.2 to 1.58 nM.
Compound `O=S(=O)(c1cccc2nsnc12)n1ccc2c(N3CCNCC3)cccc21` [Example E40] registered a Ki of 0.2 to 1.58 nM.
Consider `CN1CCN(c2cccc3c2ccn3S(=O)(=O)c2ccc(F)c(Cl)c2)CC1` [Example E100], for which the Ki under setting [1] is 0.2 to 1.58 nM.
Compound `O=S(=O)(c1cc(Cl)cc(Cl)c1)n1ccc2c(N3CCNCC3)ccc(Cl)c21` [Example E153, 7-Chloro-1-(3,5-dichlorobenzenesulfonyl)-4-piperazin-1-yl-1H-indole hydrochloride] had a Ki of 0.2 to 1.58 nM.
With `CN1CCN(c2cccc3c2ccn3S(=O)(=O)c2ccccc2)CC1` [Example E94], the Ki under setting [1] was 0.2 to 1.58 nM.
As to `O=S(=O)(c1ccccc1Br)n1ccc2c(N3CCNCC3)c(Cl)ccc21` [Example E137, 1-(2-Bromobenzenesulfonyl)-5-chloro-4-piperazin-1-yl-1H-indole hydrochloride], the Ki was 0.2 to 1.58 nM.
Regarding `CN1CCN(c2cccc3c2ccn3S(=O)(=O)c2cccc(Br)c2)CC1` [Example E82], the Ki under setting [1] was 0.2 to 1.58 nM.
For the compound `Cc1ccc(S(=O)(=O)n2ccc3c(N4CCNCC4)cccc32)cc1Cl` [Example E112], the Ki lay in the range of 0.2 to 1.58 nM.
Same read-out and setting: with `O=S(=O)(c1c(Cl)cccc1Cl)n1ccc2c(N3CCNCC3)cccc21` [Example E70] the figure was 0.2 to 1.58 nM.
On the same count and under the same terms, next, `O=S(=O)(c1ccccn1)n1ccc2c(N3CCNCC3)c(Cl)ccc21` [Example E149, 5-Chloro-1-(pyridine-2-sulfonyl)-4-piperazin-4-yl-1H-indole hydrochloride]: 0.2 to 1.58 nM.
Turning to `CN1CCN(c2cccc3c2ccn3S(=O)(=O)c2ccc3ccccc3c2)CC1` [Example E90], the Ki under setting [1] is 0.2 to 1.58 nM.
On the same count and under the same terms, next, `O=S(=O)(c1ccc(Cl)cc1OC(F)(F)F)n1ccc2c(N3CCNCC3)cccc21` [Example E168, 1-(4-Chloro-2-trifluoromethoxybenzenesulfonyl)-4-piperazin-1-yl-1H-indole hydrochloride]: 0.2 to 1.58 nM.
`O=S(=O)(c1cccc(Cl)c1)n1ccc2c(N3CCNCC3)c(Cl)cc(Cl)c21` [Example E159, 1-(3-Chlorobenzenesulfonyl)-5,7-dichloro piperazin-1-yl-1H-indole hydrochloride] gave a Ki of 0.2 to 1.58 nM.
`O=S(=O)(c1cccs1)n1ccc2c(N3CCNCC3)cccc21` [Example E121] came in with a Ki of 0.2 to 1.58 nM.
On to `COc1c(Cl)cc(Cl)cc1S(=O)(=O)n1ccc2c(N3CCNCC3)c(Cl)ccc21` [Example E78, 5-Chloro-1-(3,5-dichloro-2-methoxybenzenesulfonyl)-4-piperazin-1-yl-1H-indole trifluoroacetic acid salt], for which, under setting [1], the Ki was 0.2 to 1.58 nM.
In turn, `O=S(=O)(c1cccc(Cl)c1)n1ccc2c(N3CCNCC3)ccc(Br)c21` [Example E156, 7-Bromo-1-(3-chlorobenzenesulfonyl)-4-piperazin-1-yl-1H-indole hydrochloride] gave a Ki of 0.2 to 1.58 nM.
Still for that read-out and setting: with `Cc1cn(S(=O)(=O)c2cccc(Cl)c2)c2cccc(N3CCNCC3)c12` [Example E167, 1-(3-Chlorobenzenesulfonyl)-3-methyl-4-piperazin-1-yl-1H-indole hydrochloride] the figure was 0.2 to 1.58 nM.
As for `CN1CCN(c2cccc3c2ccn3S(=O)(=O)c2cc(Cl)cc(Cl)c2)CC1` [Example E99], the Ki under setting [1] was 0.2 to 1.58 nM.
The compound `O=S(=O)(c1ccccc1Br)n1ccc2c(N3CCNCC3)cccc21` [Example E126] displayed a Ki of 0.2 to 1.58 nM.
As for `O=S(=O)(c1cccc(Cl)c1)n1ccc2c(N3CCCNCC3)ccc(Cl)c21` [Example E175, 7-Chloro-1-(3-chlorobenzenesulfonyl)-4-[1,4]diazepan-1-yl-1H-indole hydrochloride], the Ki under setting [1] is 0.2 to 1.58 nM.
Still for that read-out and setting: with `N#Cc1cc(Br)ccc1S(=O)(=O)n1ccc2c(N3CCNCC3)c(Cl)ccc21` [Example E170, 1-(4-Bromo-2-cyanobenzenesulfonyl)-5-chloro-4-piperazin-1-yl-1H-indole hydrochloride] the figure was 0.2 to 1.58 nM.
Regarding `O=S(=O)(c1cccc(F)c1)n1ccc2c(N3CCNCC3)cccc21` [Example E22], the Ki fell in the range of 0.2 to 1.58 nM.
With `CN1CCN(c2cccc3c2ccn3S(=O)(=O)c2cccc(C(F)(F)F)c2)CC1` [Example E93], the Ki under setting [1] was 0.2 to 1.58 nM.
As for `O=S(=O)(c1cccc(Cl)c1)n1ccc2c(N3CCNCC3)ccc(Cl)c21` [Example E152, 7-Chloro-1-(3-chlorobenzenesulfonyl)-4-piperazin-1-yl-1H-indole hydrochloride], the Ki is 0.2 to 1.58 nM.
As for `O=S(=O)(c1ccccc1C(F)(F)F)n1ccc2c(N3CCNCC3)cccc21` [Example E115], the Ki under setting [1] is 0.2 to 1.58 nM.
In the case of `O=S(=O)(c1cccc(Cl)c1)n1ccc2c(N3CCNCC3)c(Cl)ccc21` [Example E132, 5-Chloro-1-(3-chlorobenzenesulfonyl)-4-piperazin-1-yl-1H-indole hydrochloride], the Ki is 0.2 to 1.58 nM.
Still for that read-out and setting: next, `O=S(=O)(c1ccccc1)n1ccc2c(N3CCNCC3)c(Cl)ccc21` [Example E135, 1-(Benzenesulfonyl)-5-chloro-4-piperazin-1-yl-1H-indole hydrochloride]: 0.2 to 1.58 nM.
The same measure, in the same setting: next, `Cc1cccc(S(=O)(=O)n2ccc3c(N4CCNCC4)c(Cl)ccc32)c1` [Example E140, 5-Chloro-1-(3-methylbenzenesulfonyl)-4-piperazin-4-yl-1H-indole hydrochloride]: 0.2 to 1.58 nM.
With `CN1CCN(c2cccc3c2ccn3S(=O)(=O)c2ccccc2Br)CC1` [Example E103], the Ki under setting [1] is 0.2 to 1.58 nM.
With `O=S(=O)(c1cccc(Br)c1)n1ccc2c(N3CCNCC3)cccc21` [Example E107], the Ki was 0.2 to 1.58 nM.
The same measure, in the same setting: with `O=S(=O)(c1cc(F)cc(F)c1Cl)n1ccc2c(N3CCNCC3)cccc21` [Example E131, 1-(2-Chloro-3,5-difluorobenzenesulfonyl)-4-piperazin-1-yl-1H-indole] the figure was 0.2 to 1.58 nM; with `N#Cc1cc(Br)ccc1S(=O)(=O)n1ccc2c(N3CCNCC3)cccc21` [Example E171, 1-(4-Bromo-2-cyanobenzenesulfonyl)-4-piperazin-1-yl-1H-indole hydrochloride], 0.2 to 1.58 nM; with `O=S(=O)(c1cccc(Cl)c1)n1cc(Cl)c2c(N3CCNCC3)c(Cl)ccc21` [Example E158, 1-(3-Chlorobenzenesulfonyl)-3,5-dichloro-4-piperazin-1-yl-1H-indole hydrochloride], 0.2 to 1.58 nM.
In the case of `O=S(=O)(c1ccc2ccccc2c1)n1ccc2c(N3CCNCC3)c(Cl)ccc21` [Example E77, 5-Chloro-1-(naphthalene-2-sulfonyl)-4-piperazin-1-yl-1H-indole trifluoroacetic acid salt], the Ki under setting [1] was 0.2 to 1.58 nM.
The compound `Cc1cc2c(N3CCNCC3)cccc2n1S(=O)(=O)c1cccc(Cl)c1` [Example E165, 1-(3-Chlorobenzenesulfonyl)-2-methyl-4-piperazin-1-yl-1H-indole hydrochloride] gave a Ki of 0.2 to 1.58 nM.
Still for that read-out and setting: next, `O=S(=O)(c1ccc(Br)cc1)n1ccc2c(N3CCNCC3)cccc21` [Example E113]: 0.2 to 1.58 nM; `O=S(=O)(c1cccc(Cl)c1)n1ccc2c(N3CCNCC3)cccc21` [Example E111]: 0.2 to 1.58 nM.
Consider `CN1CCN(c2cccc3c2ccn3S(=O)(=O)c2cccc(Cl)c2)CC1` [Example E87], for which the Ki under setting [1] was 0.2 to 1.58 nM.
On the same count and under the same terms, next, `CN1CCN(c2cccc3c2ccn3S(=O)(=O)c2cc(Br)c(Cl)s2)CC1` [Example E85]: 0.2 to 1.58 nM; `CN1CCN(c2cccc3c2ccn3S(=O)(=O)c2ccccc2C(F)(F)F)CC1` [Example E91]: 0.2 to 1.58 nM.
As to `O=S(=O)(c1cccc(Cl)c1)n1ccc2c(N3CCNCC3)c(F)ccc21` [Example E163, 1-(3-Chlorobenzenesulfonyl)-5-fluoro-4-piperazin-1-yl-1H-indole hydrochloride], the Ki is 0.2 to 1.58 nM.
`O=S(=O)(c1ccccc1)n1ccc2c(N3CCNCC3)ccc(Cl)c21` [Example E154, 1-Benzenesulfonyl-7-choro-4-piperazin-1-yl-1H-indole hydrochloride] came in with a Ki of 0.2 to 1.58 nM.
Same read-out and setting: with `COc1ccc(N2CCNCC2)c2ccn(S(=O)(=O)c3cccc(Cl)c3)c12` [Example E173, 1-(3-Chlorobenzenesulfonyl)-7-methoxy-4-piperazin-1-yl-1H-indole hydrochloride] the figure was 0.2 to 1.58 nM.
Still for that read-out and setting: next, `CN1CCN(c2cccc3c2ccn3S(=O)(=O)c2cccs2)CC1` [Example E98]: 0.2 to 1.58 nM; `O=[N+]([O-])c1cccc(S(=O)(=O)n2ccc3c(N4CCNCC4)cccc32)c1` [Example E119]: 0.2 to 1.58 nM.
Turning to `O=S(=O)(c1cccc(C(F)(F)F)c1)n1ccc2c(N3CCNCC3)c(Cl)ccc21` [Example E139, 5-Chloro-1-(3-trifluoromethyl-benzenesulfonyl)-4-piperazin-1-yl-1H-indole hydrochloride], under setting [1], the Ki was 0.2 to 1.58 nM.
Take `O=S(=O)(c1ccc(F)c(Cl)c1)n1ccc2c(N3CCNCC3)cccc21` [Example E123]: the Ki is 0.2 to 1.58 nM.
The compound `N#Cc1ccc(N2CCNCC2)c2ccn(S(=O)(=O)c3cccc(Cl)c3)c12` [Example E157, 7-Cyano-1-(3-chlorobenzenesulfonyl)-4-piperazin-1-yl-1H-indole hydrochloride] registered a Ki of 0.2 to 1.58 nM.

The record behind these values is US20050176705A1, “Compounds useful in the treatment of cns disorders” (priority 2000, published 2005).
